From PubChem BioAssay (NCI)
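How tested: cells in 96-well plates exposed to compound for 48 hours at five concentrations. Here, GI50 denotes the concentration required for 50% inhibition of growth. Definition used: TGI = concentration required for complete inhibition of growth.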

Experiments:
Assay in all cases: growth of human tumour cells (NCI), 48 h
NCI-H23 lung = test system: NCI-H23 lung
NCI-H460 lung = test system: NCI-H460 lung
NCI-H522 lung = test system: NCI-H522 lung
NCI/ADR-RES ovarian = test system: NCI/ADR-RES ovarian
OVCAR-3 ovarian = test system: OVCAR-3 ovarian
OVCAR-4 ovarian = test system: OVCAR-4 ovarian
OVCAR-5 ovarian = test system: OVCAR-5 ovarian
OVCAR-8 ovarian = test system: OVCAR-8 ovarian
PC-3 prostate = test system: PC-3 prostate
RPMI-8226 leukemia = test system: RPMI-8226 leukemia
RXF 393 renal = test system: RXF 393 renal
SF-268 CNS = test system: SF-268 CNS
SF-295 CNS = test system: SF-295 CNS
SF-539 CNS = test system: SF-539 CNS
SK-MEL-2 melanoma = test system: SK-MEL-2 melanoma
SK-MEL-28 melanoma = test system: SK-MEL-28 melanoma
SK-MEL-5 melanoma = test system: SK-MEL-5 melanoma
SK-OV-3 ovarian = test system: SK-OV-3 ovarian
SN12C renal = test system: SN12C renal
SNB-19 CNS = test system: SNB-19 CNS
SNB-75 CNS = test system: SNB-75 CNS
SR leukemia = test system: SR leukemia
SW-620 colon = test system: SW-620 colon
T-47D breast = test system: T-47D breast
TK-10 renal = test system: TK-10 renal
U251 CNS = test system: U251 CNS
UACC-257 melanoma = test system: UACC-257 melanoma
UACC-62 melanoma = test system: UACC-62 melanoma
UO-31 renal = test system: UO-31 renal

With NC(=O)c1sc(-n2cnc3ccc(C(F)(F)F)cc32)cc1OCc1ccccc1Br the GI50 (NCI-H23 lung) was 1230 nM, the TGI (NCI-H23 lung) was greater than 25000 nM and the GI50 (NCI-H460 lung) was 946 nM. For the same compound, the TGI (NCI-H460 lung) was greater than 15400 nM, the GI50 (NCI-H522 lung) was 793 nM and the TGI (NCI-H522 lung) was 5710 nM. For the same compound, the GI50 (NCI/ADR-RES ovarian) was 764 nM, the TGI (NCI/ADR-RES ovarian) was greater than 25000 nM and the GI50 (OVCAR-3 ovarian) was 762 nM. The TGI (OVCAR-3 ovarian) was 2550 nM, the GI50 (OVCAR-4 ovarian) was 3210 nM and the TGI (OVCAR-4 ovarian) was greater than 25000 nM. For the same compound, the GI50 (OVCAR-5 ovarian) was 1460 nM, the TGI (OVCAR-5 ovarian) was greater than 19200 nM and the GI50 (OVCAR-8 ovarian) was 1780 nM. For the same compound, the TGI (OVCAR-8 ovarian) was greater than 25000 nM, the GI50 (PC-3 prostate) was 2310 nM and the TGI (PC-3 prostate) was greater than 25000 nM. It also gave a GI50 (RPMI-8226 leukemia) of 2700 nM, a TGI (RPMI-8226 leukemia) greater than 21200 nM and a GI50 (RXF 393 renal) of 566 nM. It also gave a TGI (RXF 393 renal) of 1940 nM, a GI50 (SF-268 CNS) of 1320 nM and a TGI (SF-268 CNS) greater than 25000 nM. It also gave a GI50 (SF-295 CNS) of 1720 nM, a TGI (SF-295 CNS) greater than 23400 nM and a GI50 (SF-539 CNS) of 1370 nM. It also gave a TGI (SF-539 CNS) greater than 17000 nM, a GI50 (SK-MEL-2 melanoma) of 1310 nM and a TGI (SK-MEL-2 melanoma) of 11300 nM. It also gave a GI50 (SK-MEL-28 melanoma) of 4820 nM, a TGI (SK-MEL-28 melanoma) greater than 25000 nM and a GI50 (SK-MEL-5 melanoma) of 916 nM. It also gave a TGI (SK-MEL-5 melanoma) of 6780 nM, a GI50 (SK-OV-3 ovarian) of 1360 nM and a TGI (SK-OV-3 ovarian) of 9410 nM. It also gave a GI50 (SN12C renal) of 3810 nM, a TGI (SN12C renal) greater than 25000 nM and a GI50 (SNB-19 CNS) of 2790 nM. The TGI (SNB-19 CNS) was greater than 25000 nM, the GI50 (SNB-75 CNS) was 6110 nM and the TGI (SNB-75 CNS) was greater than 25000 nM. The GI50 (SR leukemia) was 907 nM, the TGI (SR leukemia) was greater than 25000 nM and the GI50 (SW-620 colon) was 749 nM. For the same compound, the TGI (SW-620 colon) was greater than 25000 nM, the GI50 (T-47D breast) was 2590 nM and the TGI (T-47D breast) was greater than 20300 nM. For the same compound, the GI50 (TK-10 renal) was 7810 nM, the TGI (TK-10 renal) was greater than 25000 nM and the GI50 (U251 CNS) was 1610 nM. For the same compound, the TGI (U251 CNS) was greater than 25000 nM, the GI50 (UACC-257 melanoma) was 2740 nM and the TGI (UACC-257 melanoma) was greater than 25000 nM. It also gave a GI50 (UACC-62 melanoma) of 1380 nM, a TGI (UACC-62 melanoma) of 17900 nM and a GI50 (UO-31 renal) of 5480 nM. For the same compound, the TGI (UO-31 renal) was greater than 25000 nM.
